Data on 28 molecules can be found in patent publication US10766869B2, “Triazoles for the treatment of demyelinating dieases” (Vertex Pharmaceuticals Incorporated, priority 2015, dated 2020).

SMILES strings stand for the structures. Like-named read-outs stand apart in the source and are kept apart here. Where only a bound is given, the exact number is not on record here.

The test system of this assay is primary rat mixed cortical cells. In words: In vitro myelination assay (MBP positive myelin strands, fold myelin pixels above background). The following applies: Rattus norvegicus; for fold induction at 1 µM: 1.0 μM compound; for fold induction at 10 µM: 10.0 μM compound. It is filed as cell-based. In short, it runs like this: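 P1 rat mixed cortical cultures (neurons, OPCs, oligodendrocytes, astrocytes, microglia) grown 14 days at 37 °C with compound, half-medium refreshed with compound on days 6 and 10. Fixed cells stained for MBP; MBP-positive myelin strand pixels per well quantified by automated imaging, reported as fold over no-compound baseline at 1.0 and 10.0 μM.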

Where [1] appears, read: read-out: Fold myelin pixels above background relative to baseline of no added compound.
[2] abbreviates: relative to baseline of no added compound, read-out: Fold myelin pixels above background.
Where [3] appears, read: relative to baseline of no added compound, read-out: Fold myelin pixels above background, 1.0 μM.
The mark [4] stands for this setting: relative to baseline of no added compound, read-out: Fold myelin pixels above background, 10.0 μM.

In the case of `COCCN1CCN(c2cc(C)cc(Nc3ncn(-c4cc(F)cc(F)c4)n3)c2)CC1=O` [Compound 1067, 4-[3-[[1-(3,5-difluorophenyl)-1,2,4-triazol-3-yl]amino]-5-methyl-phenyl]-1-(2-methoxyethyl)piperazin-2-one], under setting [1], the fold induction at 1 µM was in the range of 1 to 10 and the fold induction at 10 µM is at most 1.

As for `Cc1cc(C#CC2CC2)cc(Nc2ncn(-c3cccc(F)c3)n2)c1` [Compound 769, N-[3-(2-cyclopropylethynyl)-5-methyl-phenyl]-1-(3-fluorophenyl)-1,2,4-triazol-3-amine], under setting [2], the fold induction at 1 µM is 1 to 10 and the fold induction at 10 µM was at most 1.

Take `Cc1cc(Nc2ncn(-c3ccccc3)n2)cc(N2CCN(C)C(C)C2)c1` (centres unmarked) [Compound 133, N-[3-(3,4-dimethylpiperazin-1-yl)-5-methyl-phenyl]-1-phenyl-1,2,4-triazol-3-amine]: the fold induction at 1 µM under setting [3] was 1000 to 10000. Further, under setting [4], the fold induction at 10 µM was at most 1.

As for `Cc1cc(Nc2ncn(-c3cc(F)cc(F)c3)n2)cc(N2CCC(O)CC2)c1` [Compound 238, 1-[3-[[1-(3,5-difluorophenyl)-1,2,4-triazol-3-yl]amino]-5-methyl-phenyl]piperidin-4-ol], the fold induction at 1 µM under setting [3] fell in the range of 1000 to 10000. Further, under setting [4], the fold induction at 10 µM fell in the range of 100 to 1000.

Take `COCC1CCN(c2cc(C)cc(Nc3ncn(-c4cc(F)cc(F)c4)n3)c2)CC1` [Compound 162, 1-(3,5-difluorophenyl)-N-[3-[4-(methoxymethyl)-1-piperidyl]-5-methyl-phenyl]-1,2,4-triazol-3-amine]: the fold induction at 1 µM under setting [3] was at most 1. Also, the fold induction at 10 µM under setting [4] is at most 1.

In the case of `Cc1cc(Nc2ncn(-c3ccc(F)cc3)n2)cc(OC2CCN(C3COC3)CC2)c1` [Compound 201, 1-(4-fluorophenyl)-N-[3-methyl-5-[[1-(oxetan-3-yl)-4-piperidyl]oxy]phenyl]-1,2,4-triazol-3-amine], under setting [3], the fold induction at 1 µM was 1000 to 10000. The fold induction at 10 µM under setting [4] is at most 1.

As to `Cc1cc(Nc2ncn(-c3cnccn3)n2)cc([C@@]2(C)CNC(=O)O2)c1` (single isomer, unassigned) [Compound 603], under setting [2], the fold induction at 1 µM was in the range of 10 to 100 and the fold induction at 10 µM was in the range of 10 to 100.

Turning to `Cc1cc(Nc2ncn(-c3cc(F)c(C#N)cc3F)n2)cc(N2CCN(C3COC3)CC2)c1` [Compound 66, 2,5-difluoro-4-[3-[3-methyl-5-[4-(oxetan-3-yl)piperazin-1-yl]anilino]-1,2,4-triazol-1-yl]benzonitrile], the fold induction at 1 µM under setting [3] fell in the range of 10 to 100. Further, the fold induction at 10 µM under setting [4] was 10 to 100.

As to `Cc1cc(Nc2ncn(-c3cc(F)cc(F)c3)n2)cc([C@H]2CCN(C3COC3)C2)c1` (single isomer, unassigned) [Compound 473], under setting [2], the fold induction at 1 µM was in the range of 100 to 1000 and the fold induction at 10 µM lay within 1 to 10.

With `Cc1cc(Nc2ncn(-c3cc(F)cc(F)c3)n2)cc(N2CCN(C3COC3)CC2=O)c1` [Compound 67, 1-[3-[[1-(3,5-difluorophenyl)-1,2,4-triazol-3-yl]amino]-5-methyl-phenyl]-4-(oxetan-3-yl)piperazin-2-one], the fold induction at 1 µM under setting [3] was in the range of 1 to 10. The fold induction at 10 µM under setting [4] is 10 to 100.

For the molecule `CN1CCCN(c2cc(F)cc(Nc3ncn(-c4cccc(F)c4)n3)c2)CC1` [Compound 98, N-[3-fluoro-5-(4-methyl-1,4-diazepan-1-yl)phenyl]-1-(3-fluorophenyl)-1,2,4-triazol-3-amine], under setting [3], the fold induction at 1 µM fell in the range of 10 to 100. Besides, the fold induction at 10 µM under setting [4] is at most 1.

`FC(F)c1cc(Nc2ncn(-c3cnccn3)n2)nc(N2CCN(C3COC3)CC2)c1` [Compound 576, 4-(difluoromethyl)-6-[4-(oxetan-3-yl)piperazin-1-yl]-N-(1-pyrazin-2-yl-1,2,4-triazol-3-yl)pyridin-2-amine]: under setting [2], the fold induction at 1 µM fell in the range of 10 to 100 and the fold induction at 10 µM was in the range of 10 to 100.

For the molecule `Cc1cc(Nc2ncn(-c3cc(F)cc(F)c3)n2)cc(N2CCCC2CS(C)(=O)=O)c1` (centres unmarked) [Compound 1051, 1-(3,5-difluorophenyl)-N-[3-methyl-5-[2-(methylsulfonylmethyl)pyrrolidin-1-yl]phenyl]-1,2,4-triazol-3-amine], under setting [1], the fold induction at 1 µM lay in the range of 10 to 100 and the fold induction at 10 µM lay in the range of 1 to 10.

Turning to `Cc1cc(Nc2ncn(-c3ccccc3)n2)cc(N2CCCC(C#N)C2)c1` (centres unmarked) [Compound 146, 1-[3-methyl-5-[(1-phenyl-1,2,4-triazol-3-yl)amino]phenyl]piperidine-3-carbonitrile], the fold induction at 1 µM under setting [3] lay within 1000 to 10000. Besides, under setting [4], the fold induction at 10 µM lay within 100 to 1000.

With `Cc1cc(Nc2ncn(-c3cc(F)cc(F)c3)n2)cc(N2CC[N+]([O-])(C3COC3)CC2)c1` [Compound 139, 1-(3,5-difluorophenyl)-N-[3-methyl-5-[4-(oxetan-3-yl)-4-oxido-piperazin-4-ium-1-yl]phenyl]-1,2,4-triazol-3-amine], the fold induction at 1 µM under setting [3] fell in the range of 100 to 1000. Moreover, the fold induction at 10 µM under setting [4] is 1 to 10.

As to `CN1CCN(c2cc(F)cc(Nc3ncn(-c4cccc(F)c4)n3)c2)CC1` [Compound 203, N-[3-fluoro-5-(4-methylpiperazin-1-yl)phenyl]-1-(3-fluorophenyl)-1,2,4-triazol-3-amine], the fold induction at 1 µM under setting [3] fell in the range of 100 to 1000. Under setting [4], the fold induction at 10 µM was at most 1.

Turning to `Cc1cc(Nc2ncn(-c3cccc(F)c3)n2)cc(N2CCOCC2)c1` [Compound 27, 1-(3-fluorophenyl)-N-(3-methyl-5-morpholino-phenyl)-1,2,4-triazol-3-amine], the fold induction at 1 µM under setting [3] was 1000 to 10000. The fold induction at 10 µM under setting [4] is 100 to 1000.

As for `FC(F)(F)c1cc(Nc2ncn(-c3ccccc3)n2)cc(N2CCOCC2)c1` [Compound 366, N-[3-morpholino-5-(trifluoromethyl)phenyl]-1-phenyl-1,2,4-triazol-3-amine], the fold induction at 1 µM under setting [3] is 1000 to 10000. The fold induction at 10 µM under setting [4] lay within 1000 to 10000.

As for `Cc1cc(Nc2ncn(-c3cc(F)cc(F)c3)n2)cc(C2CCN(C3COC3)C2)c1` (centres unmarked) [Compound 25, 1-(3,5-difluorophenyl)-N-[3-methyl-5-[1-(oxetan-3-yl)pyrrolidin-3-yl]phenyl]-1,2,4-triazol-3-amine], the fold induction at 1 µM under setting [3] was in the range of 1000 to 10000. Also, the fold induction at 10 µM under setting [4] fell in the range of 1000 to 10000.

In the case of `Cc1cc(Nc2ncn(-c3cc(F)cc(F)c3)n2)cc(OC2CCN(C3COC3)CC2)c1` [Compound 433, 1-(3,5-difluorophenyl)-N-[3-methyl-5-[[1-(oxetan-3-yl)-4-piperidyl]oxy]phenyl]-1,2,4-triazol-3-amine], under setting [2], the fold induction at 1 µM is 100 to 1000 and the fold induction at 10 µM lay in the range of 100 to 1000.

Take `Cc1cc(Nc2ncn(-c3ccccc3)n2)cc(N2CC(CC(C)C)N3CCC[C@@H]3C2)c1` (stereo partly drawn) [Compound 152, N-[3-[(8aR)-4-isobutyl-3,4,6,7,8,8a-hexahydro-1H-pyrrolo[1,2-a]pyrazin-2-yl]-5-methyl-phenyl]-1-phenyl-1,2,4-triazol-3-amine]: under setting [3], the fold induction at 1 µM is at most 1. Also, the fold induction at 10 µM under setting [4] is at most 1.

Turning to `Fc1cc(Nc2ncn(-c3ccccc3)n2)cc(N2CCOCC2)c1` [Compound 80, N-(3-fluoro-5-morpholino-phenyl)-1-phenyl-1,2,4-triazol-3-amine], the fold induction at 1 µM under setting [3] lay in the range of 10 to 100. Under setting [4], the fold induction at 10 µM fell in the range of 1000 to 10000.

For the molecule `Cc1cc(Nc2ncn(-c3cc(F)cc(F)c3)n2)cc(N2C[C@@H]3C[C@H]2CN3C2COC2)c1` [Compound 34, 1-(3,5-difluorophenyl)-N-[3-methyl-5-[(1S,4S)-2-(oxetan-3-yl)-2,5-diazabicyclo[2.2.1]heptan-5-yl]phenyl]-1,2,4-triazol-3-amine], the fold induction at 1 µM under setting [3] fell in the range of 100 to 1000. The fold induction at 10 µM under setting [4] was at most 1.

`CCc1cc(Nc2ncn(-c3cccc(F)c3)n2)cc(N2CC(N3CCOCC3)C2)c1` [Compound 15, N-[3-ethyl-5-(3-morpholinoazetidin-1-yl)phenyl]-1-(3-fluorophenyl)-1,2,4-triazol-3-amine]: the fold induction at 1 µM under setting [3] lay within 100 to 1000. Also, the fold induction at 10 µM under setting [4] was in the range of 10 to 100.

Consider `COCCN1CCN(c2cc(C)cc(Nc3ncn(-c4ccccc4)n3)c2)CC1` [Compound 253, N-[3-[4-(2-methoxyethyl)piperazin-1-yl]-5-methyl-phenyl]-1-phenyl-1,2,4-triazol-3-amine], for which the fold induction at 1 µM under setting [3] fell in the range of 1000 to 10000. For the same molecule, the fold induction at 10 µM under setting [4] lay in the range of 10 to 100.

Consider `CCc1cc(Nc2ncn(-c3cc(F)cc(F)c3)n2)cc(N2CCN(C3(C)COC3)CC2)c1` [Compound 264, 1-(3,5-difluorophenyl)-N-[3-ethyl-5-[4-(3-methyloxetan-3-yl)piperazin-1-yl]phenyl]-1,2,4-triazol-3-amine], for which, under setting [3], the fold induction at 1 µM was 10 to 100. In addition, under setting [4], the fold induction at 10 µM lay in the range of 10 to 100.

As for `Cc1cc(NCCC2CCCO2)cc(Nc2ncn(-c3cc(F)cc(F)c3)n2)c1` (centres unmarked) [Compound 496, N1-[1-(3,5-difluorophenyl)-1,2,4-triazol-3-yl]-5-methyl-N3-(2-tetrahydrofuran-2-ylethyl)benzene-1,3-diamine], under setting [2], the fold induction at 1 µM lay within 100 to 1000 and the fold induction at 10 µM is 1 to 10.

Consider `CC(C)(C)OC(=O)N1CCN(c2cc(C(F)(F)F)cc(Nc3ncn(-c4cc(F)cc(F)c4)n3)n2)CC1` [Compound 557, tert-butyl 4-[6-[[1-(3,5-difluorophenyl)-1,2,4-triazol-3-yl]amino]-4-(trifluoromethyl)-2-pyridyl]piperazine-1-carboxylate], for which, under setting [2], the fold induction at 1 µM was at most 1 and the fold induction at 10 µM is at most 1.
